In patent US8232288B2, “Substituted benzimidazoles, benzothiazoles and benzoxazoles” (Gruenenthal GmbH, priority 2009, dated 2012) one finds inhibition data, which are given here for 20 compounds.

The inhibition is the drop in the measured response relative to a control, in per cent.

For assay [1], the target named is T1, B1R receptor of the rat (rB1R) (Rattus norvegicus, UniProt P97583).
T1 construct: expressed in transfected cells; host or cells: CHO K1 cells
T1 sequence (P97583 1-337): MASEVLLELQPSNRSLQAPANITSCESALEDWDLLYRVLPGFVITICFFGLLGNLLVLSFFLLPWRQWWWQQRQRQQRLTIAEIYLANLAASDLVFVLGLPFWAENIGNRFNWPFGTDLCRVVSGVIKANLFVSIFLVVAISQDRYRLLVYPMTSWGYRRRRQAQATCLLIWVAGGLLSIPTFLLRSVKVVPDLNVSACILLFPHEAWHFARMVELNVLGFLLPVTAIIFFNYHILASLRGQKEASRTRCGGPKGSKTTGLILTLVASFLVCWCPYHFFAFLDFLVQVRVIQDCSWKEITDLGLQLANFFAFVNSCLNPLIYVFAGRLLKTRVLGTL
The assay is described as follows: Functional investigation on the bradykinin receptor 1 (B1R), FLIPR Ca2+ assay, rB1R cells. In kind it is cell-based. The method in brief:
(§1)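 Stably transfected CHO K1 cells expressing human or rat B1R were loaded with Fluo-4, and Ca2+ fluorescence was read on a FLIPR. Compound (10 μM) was added first to measure activation. After 10–20 min, agonist at EC80 was added (Lys-Des-Arg9-bradykinin for hB1R, Des-Arg9-bradykinin for rB1R) to give % inhibition. IC50 values came from concentration series.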

Assay [2] deals with T2, human B1R receptor (hB1R) (Homo sapiens, UniProt P46663).
T2 construct: expressed in transfected cells; host or cells: CHO K1 cells
T2 sequence (P46663 1-353): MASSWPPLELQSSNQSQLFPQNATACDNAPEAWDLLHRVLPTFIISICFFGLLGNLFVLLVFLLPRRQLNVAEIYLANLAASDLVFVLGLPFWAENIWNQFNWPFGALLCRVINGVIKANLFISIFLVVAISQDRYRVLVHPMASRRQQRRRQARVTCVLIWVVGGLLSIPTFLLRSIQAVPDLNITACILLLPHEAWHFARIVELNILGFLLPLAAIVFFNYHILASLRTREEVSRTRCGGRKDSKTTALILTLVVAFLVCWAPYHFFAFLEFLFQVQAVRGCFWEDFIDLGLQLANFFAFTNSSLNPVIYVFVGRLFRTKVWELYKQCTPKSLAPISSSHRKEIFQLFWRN
The assay is described as follows: Functional investigation on the bradykinin receptor 1 (B1R), FLIPR Ca2+ assay, hB1R cells. Type of assay: cell-based. The method in brief: as §1

Regarding `CN(Cc1nc2cccc(C(=O)N3CCC4(CC3)CCN(c3ccncc3)C4)c2[nH]1)C(=O)c1sccc1Cl` [I_CC-09, 3-chloro-N-methyl-N-[[7-(3-pyridin-4-yl-3,8-diazaspiro[4.5]decane-8-carbonyl)-1H-benzoimidazol-2-yl]-methyl]-thiophene-2-carboxylic acid amide], the inhibition at 10 µM in assay [1] turned out to be 58%; in assay [2], 15%.
As for `Cc1cc(S(=O)(=O)N(C)Cc2nc3cccc(C(=O)N4CCC5(CC4)CCN(c4ccncc4)C5)c3[nH]2)c(C)cc1Cl` [I_CC-10, 4-chloro-N,2,5-trimethyl-N-[[7-(3-pyridin-4-yl-3,8-diazaspiro[4.5]decane-8-carbonyl)-1H-benzoimidazol-2-yl]-methyl]-benzenesulfonic acid amide], the values for the inhibition at 10 µM in assay [1] and in assay [2] were 88% and 94%, respectively.
For `Cc1cccc(Cl)c1S(=O)(=O)N(C)Cc1nc2cccc(C(=O)N3CCC4(CC3)CCN(c3ccncc3)CC4)c2[nH]1` [I_CC-11, 2-chloro-N,6-dimethyl-N-[[7-(3-pyridin-4-yl-3,9-diazaspiro[5.5]undecane-9-carbonyl)-1H-benzoimidazol-2-yl]-methyl]-benzenesulfonic acid amide], the inhibition at 10 µM in assay [1] was found to be 91%; in assay [2], 98%.
`O=C1c2c(Cl)cccc2CN1Cc1nc2cccc(C(=O)N3CCC4(CC3)CCN(c3ccncc3)CC4)c2[nH]1` [I_CC-12, 7-chloro-2-[[7-(3-pyridin-4-yl-3,9-diazaspiro[5.5]undecane-9-carbonyl)-1H-benzoimidazol-2-yl]-methyl]-2,3-dihydro-isoindol-1-one]: the inhibition at 10 µM in assay [1] worked out at 101%; in assay [2] it was 100%.
The matching figures for `O=C1c2c(Cl)cccc2CN1Cc1nc2cccc(C(=O)N3CCC4(CC3)CCN(c3ccncc3)C4)c2[nH]1` [I_CC-13, 7-chloro-2-[[7-(3-pyridin-4-yl-3,8-diazaspiro[4.5]decane-8-carbonyl)-1H-benzoimidazol-2-yl]-methyl]-2,3-dihydro-isoindol-1-one]: 49% and 71%.
As to `COc1cc(C)c(S(=O)(=O)N(C)c2nc3cccc(C(=O)N4CCC5(CC4)CCN(c4ccncc4)CC5)c3n2C)c(C)c1` [I_CC-14, 4-methoxy-N,2,6-trimethyl-N-[1-methyl-7-(3-pyridin-4-yl-3,9-diazaspiro[5.5]undecane-9-carbonyl)-1H-benzoimidazol-2-yl]-benzenesulfonic acid amide], the inhibition at 10 µM in assay [1] worked out at 90%; in assay [2], 96%.
Regarding `COc1cc(C)c(S(=O)(=O)N(C)c2nc3cccc(C(=O)N4CCC5(CC4)CCN(c4ccncc4)C5)c3n2C)c(C)c1` [I_CC-15, 4-methoxy-N,2,6-trimethyl-N-[1-methyl-7-(3-pyridin-4-yl-3,8-diazaspiro[4.5]decane-8-carbonyl)-1H-benzoimidazol-2-yl]-benzenesulfonic acid amide], the inhibition at 10 µM was determined as 99% in assay [1] and 97% in assay [2].
As to `COc1cc(C)c(S(=O)(=O)N(C)c2nc3cccc(C(=O)N4CCC5(CC4)C(=O)NCC5c4ccncc4)c3n2C)c(C)c1` (stereo not shown) [I_CC-16, 4-methoxy-N,2,6-trimethyl-N-[1-methyl-7-(4-oxo-1-pyridin-4-yl-3,8-diazaspiro[4.5]decane-8-carbonyl)-1H-benzoimidazol-2-yl]-benzenesulfonic acid amide], the inhibition at 10 µM turned out to be 82% in assay [1] and 72% in assay [2].
Take `COc1cc(C)c(S(=O)(=O)N(C)c2nc3ccc(C(=O)N4CCC5(CC4)CCN(c4ccncc4)CC5)cc3n2C)c(C)c1` [I_CC-17, 4-methoxy-N,2,6-trimethyl-N-[1-methyl-6-(3-pyridin-4-yl-3,9-diazaspiro[5.5]undecane-9-carbonyl)-1H-benzoimidazol-2-yl]-benzenesulfonic acid amide]: the results for the inhibition at 10 µM in assay [1] and in assay [2] were 56% and 71%, respectively.
For `COc1cc(C)c(S(=O)(=O)N(C)c2nc3ccc(C(=O)N4CCC5(CC4)CCN(c4ccncc4)C5)cc3n2C)c(C)c1` [I_CC-18, 4-methoxy-N,2,6-trimethyl-N-[1-methyl-6-(3-pyridin-4-yl-3,8-diazaspiro[4.5]decane-8-carbonyl)-1H-benzoimidazol-2-yl]-benzenesulfonic acid amide] the same measures were 48% and 39%.
For `COc1cc(C)c(S(=O)(=O)N(C)c2nc3c(C(=O)N4CCC5(CC4)CCN(c4ccncc4)CC5)cccc3s2)c(C)c1` [I_CC-19, 4-methoxy-N,2,6-trimethyl-N-[4-(3-pyridin-4-yl-3,9-diazaspiro[5.5]undecane-9-carbonyl)-benzothiazol-2-yl]-benzenesulfonic acid amide], the inhibition at 10 µM in assay [1] stood at 80%; in assay [2] it was 54%.
As to `COc1cc(C)c(S(=O)(=O)N(C)Cc2nc3c(C(=O)N4CCC5(CC4)CCN(c4ccncc4)C5)cccc3s2)c(C)c1` [I_CC-20, 4-methoxy-N,2,6-trimethyl-N-[[4-(3-pyridin-4-yl-3,8-diazaspiro[4.5]decane-8-carbonyl)-benzothiazol-2-yl]-methyl]-benzenesulfonic acid amide], the inhibition at 10 µM is 100% in assay [1] and 93% in assay [2].
Turning to `COc1cc(C)c(S(=O)(=O)N(C)c2nc3c(C(=O)N4CCC5(CC4)CCN(c4ccncc4)C5)cccc3s2)c(C)c1` [I_CC-21, 4-methoxy-N,2,6-trimethyl-N-[4-(3-pyridin-4-yl-3,8-diazaspiro[4.5]decane-8-carbonyl)-benzothiazol-2-yl]-benzenesulfonic acid amide], the inhibition at 10 µM was 65% in assay [1] and 36% in assay [2].
`COc1cc(C)c(S(=O)(=O)N(C)Cc2nc3c(C(=O)N4CCC5(CC4)CCN(c4ccncc4)CC5)cccc3s2)c(C)c1` [I_CC-22, 4-methoxy-N,2,6-trimethyl-N-[[4-(3-pyridin-4-yl-3,9-diazaspiro[5.5]undecane-9-carbonyl)-benzothiazol-2-yl]-methyl]-benzenesulfonic acid amide]: the inhibition at 10 µM worked out at 93% in assay [1] and 95% in assay [2].
For `COc1cc(C)c(C(=O)N(C)Cc2nc3cccc(C(=O)N4CCC5(CC4)CCN(c4ccncc4)CC5)c3[nH]2)c(C)c1` [I_CC-23, 4-methoxy-N,2,6-trimethyl-N-[[7-(3-pyridin-4-yl-3,9-diazaspiro[5.5]undecane-9-carbonyl)-1H-benzoimidazol-2-yl]-methyl]-benzamide] the same measures were 105% and 100%.
Take `COc1cc(C)c(C(=O)N(C)Cc2nc3cccc(C(=O)N4CCC5(CC4)CCN(c4ccncc4)C5)c3[nH]2)c(C)c1` [I_CC-24, 4-methoxy-N,2,6-trimethyl-N-[[7-(3-pyridin-4-yl-3,8-diazaspiro[4.5]decane-8-carbonyl)-1H-benzoimidazol-2-yl]-methyl]-benzamide]: the results for the inhibition at 10 µM in assay [1] and in assay [2] were 101% and 98%, respectively.
For `COc1cc(C)c(S(=O)(=O)N(C)C(C)c2nc3cccc(C(=O)N4CCC5(CCN(Cc6c[nH]cn6)CC5)CC4)c3[nH]2)c(C)c1` (stereo not shown) [I_CC-25, N-[1-[7-[9-(1H-Imidazol-4-yl-methyl)-3,9-diazaspiro[5.5]undecane-3-carbonyl]-1H-benzoimidazol-2-yl]-ethyl]-4-methoxy-N,2,6-trimethyl-benzenesulfonic acid amide] the same measures were 103% and 58%.
In the case of `COc1cc(C)c(S(=O)(=O)N(C)C(C)c2nc3cccc(C(=O)N4CCC5(CCN(Cc6ccccn6)CC5)CC4)c3[nH]2)c(C)c1` (stereo not shown) [I_CC-26, 4-Methoxy-N,2,6-trimethyl-N-[1-[7-[9-(pyridin-2-yl-methyl)-3,9-diazaspiro[5.5]undecane-3-carbonyl]-1H-benzoimidazol-2-yl]-ethyl]-benzenesulfonic acid amide], the inhibition at 10 µM in assay [1] is 89%; in assay [2], 91%.
For `COc1cc(C)c(S(=O)(=O)N(C)C(C)c2nc3cccc(C(=O)N4CCC5(CCN(Cc6ccncc6)CC5)CC4)c3[nH]2)c(C)c1` (stereo not shown) [I_CC-27, 4-Methoxy-N,2,6-trimethyl-N-[1-[7-[9-(pyridin-4-yl-methyl)-3,9-diazaspiro[5.5]undecane-3-carbonyl]-1H-benzoimidazol-2-yl]-ethyl]-benzenesulfonic acid amide] the same measures were 92% and 90%.
As to `COc1cc(C)c(S(=O)(=O)N(C)C(C)c2nc3cccc(C(=O)N4CCC5(CCN(Cc6cccnc6)CC5)CC4)c3[nH]2)c(C)c1` (stereo not shown) [I_CC-28, 4-Methoxy-N,2,6-trimethyl-N-[1-[7-[9-(pyridin-3-yl-methyl)-3,9-diazaspiro[5.5]undecane-3-carbonyl]-1H-benzoimidazol-2-yl]-ethyl]-benzenesulfonic acid amide], the inhibition at 10 µM in assay [1] turned out to be 85%; in assay [2], 96%.
